How the values were obtained:
Type in all cases: cell-based
[1] = system: 21 established DLBCL cell lines; assay: MTT viability assay of DLBCL cell lines with and without MTOR mutations; conditions: on average; FIG. 1G
Procedure: Lymphoma cell lines were cultured with RPMI1640 media supplemented with 10% v/v Fetal Bovine Serum (FBS) and 1% v/v Penicillin/Streptomycin supplied at 10,000 U penicillin and 10 mg streptomycin/ml (BJAB, Farage, Karpas422, Pfieffer, RL, SCI 1, SKI, Toledo, U2932, WSU_NHL, HT), or RPMI1640 supplemented with 15% v/v FBS and 1% v/v P/S (RCK8, SUDH4, SUDHL7), Iscove's modified Dulbecco's medium (IMDM) supplemented with 20% v/v human plasma and 1% P/S ([…]), or alpha-MEM media supplemented with 10% FBS and 1% P/S (TMD8). Cells were grown in a 5% CO2 environment at 37° C.
The effect the PI3K inhibitor drug BKM120 (Novartis) on lymphoma cell lines was assayed on 96-well format using MTT viability assays. 40,000 cells were grown in drug at 10 concentrations: 25 μM, and nine serial 1:2 dilutions down to 0.05 μM. For each condition tested, there were five technical replicates. Two controls were included: media only and drug-free cells. If the IC50 was not reached within this drug concentration range, the experiment was repeated with an additional drug concentration of […]. […] 100 μl of MTT detergent solution was added, and color was developed in the dark at room temperature overnight, after which 570 nm absorbance was measured. After normalization to control wells, the IC50 values were calculated. […]

[2] = system: Ly8 cell lines with stable knockdown of PAK1 expression; assay: MTT assay in Ly8 cells with shRNA knockdown of PAK1; conditions: on average, P<0.01
Procedure: The 3-(4,5-dimethylthiazol-2-yl)-2,5-diphenyltetrazolium bromide (MTT) cell viability assay was used to determine cell viability in response to drug treatment. Five replicates per concentration tested were carried out in serial dilutions with a total of ten concentrations with a 50% reduction in drug concentration per dilution for each plate. A total of 15 μl of MTT reagent was added to each drug-treated well and incubated for three hours in 37° C. Detergent was added to each drug-treated well and incubated overnight at room temperature without exposure to light. Absorbance was measured at 570 nm using a plate reader from Tecan Group.
Lentiviral pGIPZ constructs containing either a scrambled sequence (non-silencing; cat. no. RHS4346; Open Biosystems) as control, or a hairpin sequence targeting the PAK1 gene (cat. no. RHS4430; Open Biosystems) were mixed with Lentiviral packaging mix (cat. no. TLP4691; Open Biosystems) and transfected into TLA-HEK-293T cells using Arrest-in as a transfection reagent. Virus was harvested 72 hours post-transfection and frozen at −80° C. until use. DLBCL cell lines were infected with virus in the presence of 8 μg/μl of polybrene, using 1×10^5 cells per well in a 6-well plate. The plates containing cells and virus were spun at 700 g for 90 minutes at room temperature. […] Successful knockdown of PAK1 was confirmed by Western blot and quantitative PCR. […]

[3] = system: Ly8 cells and normal human B cells (tonsil lymphocytes); assay: Toxicity in Ly8 cells compared to normal B cells (alamar blue); conditions: alone and in combination; 36 hours
Procedure: BEZ235 was tested in combination with the PAK1 inhibitor IPA-3 using Calcusyn software by applying the Chou-Talalay method. BJAB, HBL1, HBL2, HT, Ly8, and Riva cells were tested, as were normal tonsil lymphocytes. Ly8 and tonsillar lymphocytes were cultured in 96-well plates (approximately 500,000 cells/ml) for 36 hours in Iscove's modified Dulbecco's medium (IMDM) with 20% human AB serum. Viability was assessed with alamar blue dye and normalized to the lowest concentration of BEZ235 in each group.
Finally, BEZ235 and IPA-3 were administered separately and concurrently to normal human B cells to ascertain a therapeutic window between normal and malignant cells.

For Nc1cc(C(F)(F)F)c(-c2cc(N3CCOCC3)nc(N3CCOCC3)n2)cn1 [BKM120], the “sensitivity of cell lines with MTOR mutations (HT, Ly1, SUDHL7) versus the other 18 cell lines” value [1] was “fivefold higher sensitivity”.

With Cn1c(=O)n(-c2ccc(C(C)(C)C#N)cc2)c2c3cc(-c4cnc5ccccc5c4)ccc3ncc21 [BEZ235] the “sensitivity of the three shRNA-modified cell lines versus unmodified Ly8 cells” value [2] was 3.5 fold and the “toxicity in Ly8 cells as compared to normal B cells” value [3] was “selective toxicity”.

Source: US9861625B2, “Methods and compositions for treating cancer through inhibition of PI3K” (Duke University, priority 2014, dated 2018)
